Source: ChEMBL document CHEMBL1201862, “PubChem BioAssay data set” (2004)
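Exposure lasted 48 hours, with cells grown in 96-well plates and compounds tested at five concentrations. GI50: concentration for 50% inhibition of growth.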 Active and inactive are the calls of the source. Cut-off read from the data, not from the text of the source: active = GI50 up to about 1.1 µM and inactive = higher.

What was measured:
Assay in all cases: NCI tumour cell line growth inhibition, 48 h
786-0 = system: 786-0
A549 = system: A549
ACHN = system: ACHN
BT-549 = system: BT-549
CAKI-1 = system: CAKI-1
CCRF-CEM = system: CCRF-CEM
COLO 205 = system: COLO 205
DU-145 = system: DU-145
EKVX = system: EKVX
HCC 2998 = system: HCC 2998
HCT-116 = system: HCT-116
HCT-15 = system: HCT-15
HOP-62 = system: HOP-62
HT-29 = system: HT-29
Hs-578T = system: Hs-578T
IGROV-1 = system: IGROV-1
K562 = system: K562
KM12 = system: KM12
LOX IMVI = system: LOX IMVI
M14 = system: M14
MCF7 = system: MCF7
MDA-MB-231 = system: MDA-MB-231
MDA-MB-435 = system: MDA-MB-435
MDA-N = system: MDA-N
MOLT-4 = system: MOLT-4
Malme-3M = system: Malme-3M
NCI-H226 = system: NCI-H226
NCI-H23 = system: NCI-H23
NCI-H460 = system: NCI-H460
NCI-H522 = system: NCI-H522
NCI/ADR-RES = system: NCI/ADR-RES
OVCAR-3 = system: OVCAR-3
OVCAR-4 = system: OVCAR-4
OVCAR-5 = system: OVCAR-5
OVCAR-8 = system: OVCAR-8
PC-3 = system: PC-3
RPMI-8226 = system: RPMI-8226
RXF 393 = system: RXF 393
SF-268 = system: SF-268
SF-295 = system: SF-295
SF-539 = system: SF-539
SK-MEL-28 = system: SK-MEL-28
SK-MEL-2 = system: SK-MEL-2
SK-MEL-5 = system: SK-MEL-5
SK-OV-3 = system: SK-OV-3
SN12C = system: SN12C
SNB-19 = system: SNB-19
SNB-75 = system: SNB-75
SR = system: SR
SW-620 = system: SW-620
T47D = system: T47D
TK-10 = system: TK-10
U-251 = system: U-251
UACC-257 = system: UACC-257
UO-31 = system: UO-31
A498 = system: A498
HL-60 = system: HL-60
UACC-62 = system: UACC-62

`Cc1ccc(/C=C/c2n[nH]c(N/N=C/c3ccc4c(c3)OCO4)nc2=O)cc1` was tested, and the GI50 (786-0) was 14.4 µM (inactive), the GI50 (A549) was 38.5 µM (inactive) and the GI50 (ACHN) was 25.2 µM (inactive). The GI50 (BT-549) was 17.9 µM (inactive), the GI50 (CAKI-1) was 33.3 µM (inactive) and the GI50 (CCRF-CEM) was 18.7 µM (inactive). For the same compound, the GI50 (COLO 205) was 74.3 µM (inactive), the GI50 (DU-145) was 19.4 µM (inactive) and the GI50 (EKVX) was 35.3 µM (inactive). The GI50 (HCC 2998) was 22.3 µM (inactive), the GI50 (HCT-116) was 21.1 µM (inactive) and the GI50 (HCT-15) was 44.9 µM. The GI50 (HOP-62) was 19 µM (inactive), the GI50 (HT-29) was 24 µM (inactive) and the GI50 (Hs-578T) was 13.6 µM (inactive). For the same compound, the GI50 (IGROV-1) was 20.2 µM (inactive), the GI50 (K562) was 30.1 µM (inactive) and the GI50 (KM12) was 17.3 µM (inactive). For the same compound, the GI50 (LOX IMVI) was 19.6 µM (inactive), the GI50 (M14) was 36.6 µM (inactive) and the GI50 (MCF7) was 23.3 µM (inactive). For the same compound, the GI50 (MDA-MB-231) was 15.5 µM (inactive), the GI50 (MDA-MB-435) was 33.4 µM (inactive) and the GI50 (MDA-N) was 25.3 µM (inactive). For the same compound, the GI50 (MOLT-4) was 39.9 µM (inactive), the GI50 (Malme-3M) was 3.28 µM (inactive) and the GI50 (NCI-H226) was 26.9 µM (inactive). The GI50 (NCI-H23) was 15.4 µM (inactive), the GI50 (NCI-H460) was 24.9 µM (inactive) and the GI50 (NCI-H522) was 28.8 µM (inactive). For the same compound, the GI50 (NCI/ADR-RES) was 9.23 µM (inactive), the GI50 (OVCAR-3) was 19.6 µM (inactive) and the GI50 (OVCAR-4) was 19.3 µM (inactive). The GI50 (OVCAR-5) was > 100 µM (inactive), the GI50 (OVCAR-8) was 15.5 µM (inactive) and the GI50 (PC-3) was 21 µM (inactive). For the same compound, the GI50 (RPMI-8226) was 67.8 µM (inactive), the GI50 (RXF 393) was 27.2 µM (inactive) and the GI50 (SF-268) was 17.2 µM (inactive). The GI50 (SF-295) was 33.7 µM (inactive), the GI50 (SF-539) was 21 µM (inactive) and the GI50 (SK-MEL-28) was 16 µM (inactive). The GI50 (SK-MEL-2) was 30.8 µM (inactive), the GI50 (SK-MEL-5) was 30.1 µM (inactive) and the GI50 (SK-OV-3) was 30.5 µM (inactive). For the same compound, the GI50 (SN12C) was 18.5 µM (inactive), the GI50 (SNB-19) was 18.5 µM (inactive) and the GI50 (SNB-75) was 15 µM (inactive). The GI50 (SR) was 11.2 µM (inactive), the GI50 (SW-620) was 19.5 µM (inactive) and the GI50 (T47D) was 36.6 µM (inactive). The GI50 (TK-10) was 25.9 µM (inactive), the GI50 (U-251) was 17.6 µM (inactive) and the GI50 (UACC-257) was 40.1 µM (inactive). The GI50 (UO-31) was 88.7 µM (inactive).

With `N#C/C(N)=C(C#N)/N=C/NCc1ccccc1` the GI50 (786-0) was > 100 µM (inactive), the GI50 (A498) was > 100 µM (inactive) and the GI50 (A549) was > 100 µM (inactive). For the same compound, the GI50 (ACHN) was > 100 µM (inactive), the GI50 (BT-549) was > 100 µM (inactive) and the GI50 (CAKI-1) was > 100 µM (inactive). The GI50 (CCRF-CEM) was > 100 µM (inactive), the GI50 (COLO 205) was > 100 µM (inactive) and the GI50 (DU-145) was > 100 µM (inactive). The GI50 (EKVX) was > 100 µM (inactive), the GI50 (HCC 2998) was > 100 µM (inactive) and the GI50 (HCT-116) was > 100 µM (inactive). The GI50 (HCT-15) was > 100 µM, the GI50 (HL-60) was > 100 µM (inactive) and the GI50 (HOP-62) was > 100 µM (inactive). The GI50 (HT-29) was > 100 µM (inactive), the GI50 (Hs-578T) was > 100 µM (inactive) and the GI50 (IGROV-1) was > 100 µM (inactive). The GI50 (K562) was > 100 µM (inactive), the GI50 (KM12) was > 100 µM (inactive) and the GI50 (LOX IMVI) was > 100 µM (inactive). For the same compound, the GI50 (M14) was > 100 µM (inactive), the GI50 (MCF7) was > 100 µM (inactive) and the GI50 (MDA-MB-231) was > 100 µM (inactive). For the same compound, the GI50 (MDA-MB-435) was > 100 µM (inactive), the GI50 (MDA-N) was > 100 µM (inactive) and the GI50 (MOLT-4) was > 100 µM (inactive). The GI50 (Malme-3M) was > 100 µM (inactive), the GI50 (NCI-H226) was > 100 µM (inactive) and the GI50 (NCI-H23) was > 100 µM (inactive). For the same compound, the GI50 (NCI-H460) was > 100 µM (inactive), the GI50 (NCI-H522) was > 100 µM (inactive) and the GI50 (NCI/ADR-RES) was 50.1 µM (inactive). For the same compound, the GI50 (OVCAR-3) was > 100 µM (inactive), the GI50 (OVCAR-4) was > 100 µM (inactive) and the GI50 (OVCAR-5) was > 100 µM (inactive). The GI50 (OVCAR-8) was > 100 µM (inactive), the GI50 (PC-3) was > 100 µM (inactive) and the GI50 (RPMI-8226) was > 100 µM (inactive). For the same compound, the GI50 (SF-268) was > 100 µM (inactive), the GI50 (SF-295) was > 100 µM (inactive) and the GI50 (SF-539) was > 100 µM (inactive). The GI50 (SK-MEL-28) was > 100 µM (inactive), the GI50 (SK-MEL-2) was 38.4 µM (inactive) and the GI50 (SK-MEL-5) was > 100 µM (inactive). The GI50 (SK-OV-3) was > 100 µM (inactive), the GI50 (SN12C) was > 100 µM (inactive) and the GI50 (SNB-19) was > 100 µM (inactive). For the same compound, the GI50 (SNB-75) was > 100 µM (inactive), the GI50 (SR) was > 100 µM (inactive) and the GI50 (SW-620) was > 100 µM (inactive). For the same compound, the GI50 (T47D) was 75.9 µM (inactive), the GI50 (TK-10) was > 100 µM (inactive) and the GI50 (U-251) was > 100 µM (inactive). The GI50 (UACC-257) was > 100 µM (inactive), the GI50 (UACC-62) was 95.5 µM (inactive) and the GI50 (UO-31) was > 100 µM (inactive).
